The conditions of data set [1]: MI/R rats, plasma, n = 6.
The test system of data set [2] is IMA. Put plainly: Plasma IMA. In kind it is in vivo, Sprague Dawley rats. The settings on record: GHI-L ([…], i.v.), MI/R rats, Sigmoid-Emax model.
The test system of data set [3] is α-HBDH. Put plainly: Plasma α-HBDH. In kind it is in vivo, Sprague Dawley rats. The conditions noted are these: MI/R rats, Sigmoid-Emax model.
Data set [4] deals with cTn I. Put plainly: Plasma cTn I. The settings on record: MI/R rats, Sigmoid-Emax model. Format: in vivo, Sprague Dawley rats.
Data set [5] has as its system CK-MB. Put plainly: Plasma CK-MB. The settings on record: GHI-L ([…], i.v.), MI/R rats, Sigmoid-Emax model. Format: in vivo, Sprague Dawley rats.

Where two headings read alike, the source gives them in different places.

In data set [1] (GHI-H (GHI 10 mL/kg, i.v.)), `O=C(/C=C/c1ccc(O)c(O)c1)O[C@@H]1C[C@](O)(C(=O)O)C[C@@H](O)[C@H]1O` [Chlorogenic acid, chlorogenic acid] gave a CL1 of 42.57 ± 1.53 mL/min/kg, a CL2 of 173.38 ± 15.2 mL/min/kg, a K10 of 6.701 ± 1.078 h⁻¹ and a K12 of 27.459 ± 6.003 h⁻¹. In data set [1] (GHI-H (GHI 10 mL/kg, i.v.)), this compound had a K21 of 8.203 ± 0.823 h⁻¹, a Q of 173.3 ± 15.2 mL/min/kg, a V1 of 0.389 ± 0.059 L/kg and a V2 of 1.273 ± 0.103 L/kg. In data set [1] (GHI-H (GHI 10 mL/kg, i.v.)), this compound returned a t1/2α of 1.08 ± 0.18 min. In data set [1] (GHI-L (GHI […], i.v.)), this compound came in with a CL1 of 44.48 ± 2.82 mL/min/kg, a CL2 of 150 ± 15.1 mL/min/kg, a K10 of 4.274 ± 1.912 h⁻¹ and a K12 of 14.327 ± 4.021 h⁻¹. For the same compound, in data set [1] (GHI-L (GHI […], i.v.)), the K21 is 3.902 ± 0.294 h⁻¹, the Q is 149.8 ± 15.1 mL/min/kg, the V1 was 0.672 ± 0.201 L/kg and the V2 is 2.304 ± 0.146 L/kg. This compound also showed a t1/2α in data set [1] (GHI-L (GHI […], i.v.)) of 2.04 ± 0.54 min. Also, in data set [1] (GHI-M (GHI 5 mL/kg, i.v.)), the CL1 amounted to 32.32 ± 2.43 mL/min/kg, the CL2 came out at 120 ± 8.42 mL/min/kg, the K10 was found to be 3.987 ± 0.663 h⁻¹ and the K12 was 14.709 ± 1.766 h⁻¹. In data set [1] (GHI-M (GHI 5 mL/kg, i.v.)), this compound returned a K21 of 4.84 ± 0.29 h⁻¹, a Q of 119.8 ± 8.4 mL/min/kg, a V1 of 0.496 ± 0.08 L/kg and a V2 of 1.49 ± 0.142 L/kg. In data set [1] (GHI-M (GHI 5 mL/kg, i.v.)), this compound returned a t1/2α of 1.86 ± 0.18 min. Besides, in data set [2], the “Emax (maximal effect) of optimal PK/PD equation, ΔIMA” value came out at 28.211. Further, the “Emax (maximal effect) of optimal PK/PD equation, Δα-HBDH” value (“Emax (maximal effect) … Δα-HBDH” for short) in data set [3] (GHI-H (10 mL/kg, i.v.)) is reported as 86.524. Also, the “Emax (maximal effect) … Δα-HBDH” value in data set [3] (GHI-L ([…], i.v.)) was 48.745. Also, in data set [3] (GHI-M (5 mL/kg, i.v.)), the “Emax (maximal effect) … Δα-HBDH” value turned out to be 72.774. In addition, the “Emax (maximal effect) of optimal PK/PD equation, ΔcTn I” value in data set [4] (GHI-M (5 mL/kg, i.v.)) is listed as 7.28.
Turning to `C[C@@H]1O[C@@H](OC[C@H]2O[C@@H](Oc3c(-c4ccc(O)c(O)c4)oc4cc(O)cc(O)c4c3=O)[C@H](O)[C@@H](O)[C@@H]2O)[C@H](O)[C@H](O)[C@H]1O` [Rutin, rutin], in data set [1] (GHI-H (GHI 10 mL/kg, i.v.)), the CL1 stood at 46.88 ± 7.65 mL/min/kg, the CL2 is 111.9 ± 61.47 mL/min/kg, the K10 was found to be 25.55 ± 19.846 h⁻¹ and the K12 worked out at 42.24 ± 19.866 h⁻¹. For the same compound, in data set [1] (GHI-H (GHI 10 mL/kg, i.v.)), the K21 was found to be 7.333 ± 1.971 h⁻¹, the Q came to 111.8 ± 61.52 mL/min/kg, the V1 was 0.239 ± 0.209 L/kg and the V2 is listed as 0.855 ± 0.277 L/kg. The t1/2α in data set [1] (GHI-H (GHI 10 mL/kg, i.v.)) worked out at 0.72 ± 0.36 min. In data set [1] (GHI-L (GHI […], i.v.)), this compound returned a CL1 of 63.25 ± 8.27 mL/min/kg, a CL2 of 104.4 ± 13.5 mL/min/kg, a K10 of 10.125 ± 0.978 h⁻¹ and a K12 of 16.754 ± 1.998 h⁻¹. In data set [1] (GHI-L (GHI […], i.v.)), the K21 was found to be 3.748 ± 0.381 h⁻¹, the Q came to 104.4 ± 13.6 mL/min/kg, the V1 worked out at 0.379 ± 0.071 L/kg and the t1/2α came out at 1.44 ± 0.12 min. In data set [1] (GHI-M (GHI 5 mL/kg, i.v.)), the CL1 worked out at 47.87 ± 4.4 mL/min/kg, the CL2 worked out at 83.63 ± 11.1 mL/min/kg, the K10 is 6.448 ± 1.858 h⁻¹ and the K12 worked out at 11.318 ± 3.536 h⁻¹. In data set [1] (GHI-M (GHI 5 mL/kg, i.v.)), this compound showed a K21 of 4.751 ± 1.024 h⁻¹, a Q of 83.63 ± 11.1 mL/min/kg, a V1 of 0.466 ± 0.88 L/kg and a V2 of 1.075 ± 0.133 L/kg. For the same compound, in data set [1] (GHI-M (GHI 5 mL/kg, i.v.)), the t1/2α was 2.1 ± 0.6 min. In addition, in data set [4] (GHI-L ([…], i.v.)), the “Emax (maximal effect) of optimal PK/PD equation, ΔcTn I” value worked out at 4.632.
In the case of kaempferol-3-O-rutinoside, the “Emax (maximal effect) of optimal PK/PD equation, ΔCK-MB” value in data set [5] was 11.04.

For the origin of these results see article PMC10962654 (Journal of Food and Drug Analysis, 2023).
